{
  "source": "paper PMC11411626",
  "about": "(2024)",
  "key": {"[1]": {"tested_on": "CAG RNA oligonucleotide (RNA, repeat) GCAGCAGCUUCGGCAGCAGC", "assay": "fluorescence well-plate screening", "conditions": "buffer pH 7, 5 μM ligand, 1 equiv. RNA"}, "[2]": {"tested_on": "CAG RNA oligonucleotide (RNA, repeat) GCAGCAGCUUCGGCAGCAGC", "assay": "spectrophotometric titration", "conditions": "2a 5 μM, RNA/2a 0–4; SpecFit 1:1 fit"}, "[3]": {"tested_on": "CUG RNA motif (RNA, repeat) GGUCGCUGCUGCACGAAAGUGCUGCUGCGACC", "assay": "fluorescence well-plate screening", "conditions": "buffer pH 7, 5 μM ligand, 1 equiv. RNA"}, "[4]": {"conditions": "no pronounced interaction, small fluorescence change"}},
  "data": [
    {"smiles": "CN(C)CCOc1ccc(/C=C2\\Oc3cc(O)ccc3C2=O)cc1", "values": [
      {"measurement": "binding", "setting": "[1]; [4]", "result": "no"}
    ]},
    {"smiles": "CN(C)CCOc1ccc(/C=C2\\Oc3cc(OCCN(C)C)ccc3C2=O)cc1", "values": [
      {"measurement": "K", "setting": "[2]", "result": "(1.4 ± 0.1) × 10^5 M^-1"},
      {"measurement": "binding", "setting": "[3]; absent or very weak interaction", "result": "no"}
    ]},
    {"smiles": "COc1cc(/C=C2\\Nc3ccccc3C2=O)ccc1OCCCN(C)C", "values": [
      {"measurement": "binding", "setting": "[1]", "result": "no"}
    ]},
    {"smiles": "COc1ccc(/C=C2\\Oc3cc(OCCN(C)C)ccc3C2=O)cc1", "values": [
      {"measurement": "binding", "setting": "[1]; [4]", "result": "no"}
    ]},
    {"smiles": "COc1ccc(/C=C2\\Oc3ccccc3C2=O)cc1", "values": [
      {"measurement": "binding", "setting": "[1]", "result": "no"}
    ]},
    {"smiles": "N=C(N)c1ccc(-c2ccc(-c3ccc(C(=N)N)cc3)o2)cc1", "values": [
      {"measurement": "binding", "setting": "[1]; 57% quenching", "result": "yes"}
    ]},
    {"smiles": "O=C1/C(=C/c2c3ccccc3cc3ccccc23)Oc2ccccc21", "values": [
      {"measurement": "binding", "setting": "[1]; 21% light-up, aggregation prevented titration", "result": "yes"},
      {"measurement": "binding", "setting": "[3]; excitation 450 nm, almost no interaction", "result": "no"}
    ]}
  ]
}
